Test systems include MDA-MB-231; NCI-H226; HCT-15; U-251; M14; HL-60; MDA-MB-435; SF-539; SF-268; SW-620; SK-OV-3; K562; 786-0; MCF7; BT-549; A549; EKVX; RPMI-8226; SNB-19; SK-MEL-2.
Holding throughout (assay): NCI-60 cell line screen, 48 h

The text below walks through data of ChEMBL document CHEMBL1201862, “PubChem BioAssay data set” (2004).

Structures are written as SMILES.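 Assay format: 96-well plates, 48-hour exposure. GI50: concentration for 50% inhibition of growth.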 Active and inactive are the calls of the source. Cut-off read from the data, not from the text of the source: active = GI50 up to about 1.1 µM and inactive = higher. Bounds are passed on as bounds.

With `COc1cc(-c2cc(O)c(-c3ccc4ccccc4n3)c(O)n2)cc(OC)c1OC`, the GI50 in the test with MDA-MB-231 was 36.6 µM (inactive); in the test on NCI-H226 it was > 48.3 µM (inactive); with HCT-15 it was 29 µM; with U-251, 22.9 µM (inactive); in the test with M14, 25.4 µM (inactive); in the test with HL-60, 8.55 µM (inactive). In addition, the GI50 in the test on MDA-MB-435 is 2.07 µM (inactive); in the test on SF-539, 30.7 µM (inactive); in the test on SF-268, 43 µM (inactive); in the test with SW-620, 19.1 µM (inactive); with SK-OV-3, 39.6 µM (inactive); with K562, 3.31 µM (inactive). Further, the GI50 in the test with 786-0 is 34.4 µM (inactive); in the test with MCF7, 39.1 µM (inactive); in the test with BT-549 it was 80.4 µM (inactive); in the test with A549, 53.7 µM (inactive); with EKVX, > 52 µM (inactive); in the test on RPMI-8226, > 50 µM (inactive). Moreover, the values for the GI50 with SNB-19 and in the test with SK-MEL-2 were > 75.7 µM (inactive) and 32.2 µM (inactive), respectively.

For `NC(=O)CO/N=C1/C(=C2/C(=O)Nc3ccccc32)Nc2ccccc21`, the GI50 in the test with MDA-MB-231 was > 100 µM (inactive); with NCI-H226, 4.35 µM (inactive); in the test on HCT-15, 2 µM; in the test on U-251 it was > 100 µM (inactive); with M14 it was 10.4 µM (inactive); with HL-60, 1.96 µM (inactive). Further, the GI50 in the test on MDA-MB-435 is 21.1 µM (inactive); in the test with SF-539 it was > 100 µM (inactive); in the test with SF-268 it was > 100 µM (inactive); in the test with SW-620, 4.95 µM (inactive); with SK-OV-3, 0.522 µM (active); with K562 it was 40 µM (inactive). The GI50 was > 100 µM (inactive) with 786-0; 1.38 µM (inactive) in the test on MCF7; 12.4 µM (inactive) in the test with BT-549; 1.96 µM (inactive) in the test on A549; > 100 µM (inactive) in the test with EKVX; 17.9 µM (inactive) in the test on RPMI-8226. Moreover, the GI50 in the test on SNB-19 was > 100 µM (inactive); in the test with SK-MEL-2, 2.4 µM (inactive).

As to `CC1CC(c2ccccc2)Nc2nc3ccccc3n21` (stereo not given), the GI50 with MDA-MB-231 is > 100 µM (inactive); in the test on NCI-H226 it was > 100 µM (inactive); in the test on HCT-15 it was above 100 µM; in the test with U-251, > 100 µM (inactive); in the test on M14 it was > 100 µM (inactive); with HL-60, > 100 µM (inactive). Also, the GI50 in the test on MDA-MB-435, in the test with SF-539, in the test with SF-268, in the test with SW-620, with SK-OV-3 and in the test with K562 was > 100 µM (inactive) throughout. The GI50 with 786-0, with MCF7, with BT-549, in the test with A549, in the test with EKVX and in the test with RPMI-8226 was > 100 µM (inactive) each time. In addition, the GI50 with SNB-19 and in the test with SK-MEL-2 was > 100 µM (inactive) each time.

`COC(=O)Nc1nc2cc(S(=O)(=O)N3CCOCC3)ccc2[nH]1`: the GI50 with MDA-MB-231 is > 100 µM (inactive); in the test with NCI-H226 it was > 100 µM (inactive); in the test with HCT-15, above 100 µM; in the test on U-251, > 100 µM (inactive); with M14 it was > 100 µM (inactive); in the test on HL-60 it was 6.21 µM (inactive). Besides, the GI50 in the test with MDA-MB-435 was 26.4 µM (inactive); with SF-539 it was 12.4 µM (inactive); in the test on SF-268 it was > 100 µM (inactive); in the test with SW-620, 54.1 µM (inactive); in the test with SK-OV-3, > 100 µM (inactive); in the test with K562, 44.7 µM (inactive). Besides, the GI50 with 786-0 was > 100 µM (inactive); in the test with MCF7, > 100 µM (inactive); in the test on BT-549, > 100 µM (inactive); in the test on A549 it was > 100 µM (inactive); in the test with EKVX, > 100 µM (inactive); in the test with RPMI-8226, 30.3 µM (inactive). For the same molecule, the GI50 in the test on SNB-19 and in the test with SK-MEL-2 was > 100 µM (inactive) throughout.

As for `Clc1n[nH]c2ccccc12`, the GI50 with MDA-MB-231 was > 100 µM (inactive); in the test with NCI-H226, 71 µM (inactive); in the test with HCT-15, above 100 µM; in the test on U-251, > 100 µM (inactive); in the test with M14 it was > 100 µM (inactive); with HL-60, > 100 µM (inactive). Moreover, the GI50 in the test on MDA-MB-435, in the test with SF-539, with SF-268, in the test with SW-620, in the test on SK-OV-3 and in the test with K562 was > 100 µM (inactive) in each case. In addition, the GI50 was > 100 µM (inactive) with 786-0; > 100 µM (inactive) in the test with MCF7; 14.7 µM (inactive) in the test on BT-549; > 100 µM (inactive) in the test on A549; 86.5 µM (inactive) in the test with EKVX; > 100 µM (inactive) in the test with RPMI-8226. In addition, the GI50 in the test on SNB-19 and in the test on SK-MEL-2 was > 100 µM (inactive) in each case.

In the case of `CC(C)=CCC[C@](C)(O[C@@H]1O[C@H](CO)[C@@H](O)[C@H](O)[C@H]1O)[C@H]1CC[C@]2(C)[C@@H]1[C@H](O)C[C@@H]1[C@@]3(C)CC[C@H](O)C(C)(C)[C@@H]3[C@@H](O[C@@H]3O[C@H](CO)[C@@H](O)[C@H](O)[C@H]3O)C[C@]12C` [GINSENOSIDE RG1], the GI50 with MDA-MB-231 was > 100 µM (inactive); in the test on NCI-H226 it was > 100 µM (inactive); with HCT-15 it was above 100 µM; in the test with U-251, > 100 µM (inactive); in the test on M14 it was > 100 µM (inactive); with HL-60, > 100 µM (inactive). The GI50 in the test with MDA-MB-435, in the test with SF-539, in the test on SF-268, with SW-620, with SK-OV-3 and in the test on K562 was > 100 µM (inactive) each time. In addition, the GI50 in the test with 786-0, in the test on MCF7, in the test on BT-549, with A549, in the test on EKVX and in the test on RPMI-8226 was > 100 µM (inactive) in each case. The GI50 with SNB-19 and in the test on SK-MEL-2 was > 100 µM (inactive) in each case.
